The source made the active and inactive calls. The rule behind the calls is not given here.
Key:
[1] = Inhibition of bovine testis hyaluronidase preincubated with CaCl2 for 20 mins followed by incubation with compound for 20 mins and substrate for 10 mins by colorimetric Morgan-Elson method in presence of urea; design: species or system Bos taurus
[2] = Inhibition of bovine testis hyaluronidase using hyaluronic acid as substrate preincubated with CaCl2 for 20 mins followed by incubation with compound for 20 mins and substrate for 10 mins by colorimetric Morgan-Elson method; design: species or system Bos taurus
[3] = Inhibition of bovine testis hyaluronidase using hyaluronic acid as substrate preincubated for 20 mins followed by incubation with CaCl2 for 20 mins and substrate for 10 mins by colorimetric Morgan-Elson method; design: species or system Bos taurus
[4] = Inhibition of bovine testis hyaluronidase using hyaluronic acid as substrate preincubated with CaCl2 for 20 mins followed by incubation with of compound for 20 mins and substrate for 10 mins by colorimetric Morgan-Elson method in presence of 0.05% triton X-100; design: species or system Bos taurus
Bos taurus [5] = organism: Bos taurus; assay: Ratio of IC50 for inhibition of bovine testis hyaluronidase preincubated with CaCl2 for 20 mins followed by addition of compound to IC50 for inhibition of bovine testis hyaluronidase preincubated for 20 mins followed by addition of CaCl2
[6] = Inhibition of bovine testis hyaluronidase using hyaluronic acid as substrate preincubated with CaCl2 for 20 mins followed by incubation with compound for 20 mins and substrate for 10 mins by colorimetric Morgan-Elson method in presence of BSA; design: species or system Bos taurus
Bos taurus [7] = organism: Bos taurus; assay: Inhibition of bovine testis hyaluronidase preincubated with CaCl2 for 20 mins followed by incubation with compound for 20 mins and substrate for 10 mins by colorimetric Morgan-Elson method in presence of up to 21% DMSO
Bos taurus [8] = organism: Bos taurus; assay: Inhibition of bovine testis hyaluronidase using hyaluronic acid as substrate at 3000 uM preincubated with CaCl2 for 20 mins followed by incubation with compound for 20 mins and substrate for 10 mins by colorimetric Morgan-Elson method in presence of 0.05% triton X-100

Structure (SMILES)	IC50 [1] [µM]	IC50 [2] [µM]	IC50 [3] [µM]	IC50 [4] [µM]	Ratio IC50 (Bos taurus [5])	IC50 [6] [µM]	inhibition (Bos taurus [7])	inhibition (Bos taurus [8]) [%]
CC1(C)[C@@H](O[C@H]2O[C@H](C(=O)O)[C@@H](O)[C@H](O)[C@H]2O[C@@H]2O[C@H](C(=O)O)[C@@H](O)[C@H](O)[C@H]2O)CC[C@]2(C)[C@H]3C(=O)C=C4[C@@H]5C[C@@](C)(C(=O)O)CC[C@]5(C)CC[C@@]4(C)[C@]3(C)CC[C@@H]12 [GLYCYRRHIZIN]	31	29	8.5	40	> 3	61	inactive	
O=C(O)[C@H]1O[C@@H](Oc2cc3oc(-c4ccccc4)cc(=O)c3c(O)c2O)[C@H](O)[C@@H](O)[C@@H]1O [BAICALIN]		1400	450	1000		1600	inactive	
COc1ccc2c(c1)c(CC(=O)O)c(C)n2C(=O)c1ccc(Cl)cc1 [INDOMETHACIN]		1400	340			2000		< 50
O=C(O)c1cc(=O)c2c(OCC(O)COc3cccc4oc(C(=O)O)cc(=O)c34)cccc2o1 [CROMOLYN SODIUM]	1600	1700	330	1700		1600	inactive	
CCCCCCCCCCCCCCCC(=O)OC[C@H](O)C1OC(=O)C(O)=C1O (some centres not stated)		47	23	480		240	Active	

From ChEMBL document CHEMBL3808309, “Interpreting the behavior of concentration-response curves of hyaluronidase inhibitors under DMSO-perturbed assay conditions” (Bioorg Med Chem Lett, 2016)
